Measurements as given in publication PMC12311865, “In Vitro Evaluation of the Potential Interactions of Zearalenone-14-sulfate and Zearalenone-14-glucuronide with Human Cytochrome P450 Enzymes, Organic Anion Transporting Polypeptides, and ATP-Binding Cassette Multidrug Transporters” (ACS Omega, 2025).
pIC50: −log10 of the molar value. Where two headings read alike, the source gives them in different places.

Columns and labels:
CYP2C9 = molecular target: T1, CYP2C9 (Homo sapiens, UniProt P11712); assay: in vitro; format: biochemical; conditions: diclofenac 5 μM, 120 min
T1 construct: purchased Merck
Protocol: Inhibitory actions of ZEN conjugates on CYP2C9 and CYP3A4 enzymes were examined employing CypExpress Cytochrome P450 human kits. , Briefly, incubates (200 μL) contained the substrate (5 μM; diclofenac for CYP2C9 and testosterone for CYP3A4), the CypExpress reagent (6 mg/mL of CYP2C9 kit or 15 mg/mL of CYP3A4 kit; also including the glucose-6-phosphate dehydrogenase enzyme), and the test compounds (each 20 μM) in 0.05 M potassium phosphate buffer (pH 7.5). CYP3A4 assay was supplemented with additional G6P and NADP^+ (both 400 μM). Enzyme assays were started with the addition of the enzyme. After 120 min (CYP2C9) or 180 min (CYP3A4) incubation at 700 rpm and 30 °C in a thermomixer, the reaction was stopped with 100 μL of ice-cold methanol. Then, the samples were centrifuged for 10 min at 14,000g and room temperature. The supernatants were gently removed and directly analyzed by HPLC (see Section ).
Diclofenac and 4′-hydroxydiclofenac (CYP2C9 assay) were quantified using the previously reported HPLC-UV assay, , without modification. Briefly, the isocratic elution, with 1.0 mL/min flow rate, was performed with orthophosphoric acid (6 mM) and acetonitrile (48:52 v/v %) mobile phase, applying a Security Guard (C8, 4.0 × 3.0 mm; Phenomenex, Torrance, CA) precolumn and a Mediterranea Sea8 (C8, 150 × 4.6 mm, 5 μm; Teknokroma, Barcelona, Spain) analytical column at room temperature (injected volume: 20 μL). Diclofenac and 4′-hydroxydiclofenac were detected at 275 nm.

OATP1B1 = molecular target: T2, OATP1B1 (Homo sapiens, UniProt Q9Y6L6); assay: OATP1B1-mediated pyranine uptake in overexpressing A431 cells; format: cell-based
T2 construct: expressed in transfected cells; host or cells: A431
T2 sequence (Q9Y6L6 1-691): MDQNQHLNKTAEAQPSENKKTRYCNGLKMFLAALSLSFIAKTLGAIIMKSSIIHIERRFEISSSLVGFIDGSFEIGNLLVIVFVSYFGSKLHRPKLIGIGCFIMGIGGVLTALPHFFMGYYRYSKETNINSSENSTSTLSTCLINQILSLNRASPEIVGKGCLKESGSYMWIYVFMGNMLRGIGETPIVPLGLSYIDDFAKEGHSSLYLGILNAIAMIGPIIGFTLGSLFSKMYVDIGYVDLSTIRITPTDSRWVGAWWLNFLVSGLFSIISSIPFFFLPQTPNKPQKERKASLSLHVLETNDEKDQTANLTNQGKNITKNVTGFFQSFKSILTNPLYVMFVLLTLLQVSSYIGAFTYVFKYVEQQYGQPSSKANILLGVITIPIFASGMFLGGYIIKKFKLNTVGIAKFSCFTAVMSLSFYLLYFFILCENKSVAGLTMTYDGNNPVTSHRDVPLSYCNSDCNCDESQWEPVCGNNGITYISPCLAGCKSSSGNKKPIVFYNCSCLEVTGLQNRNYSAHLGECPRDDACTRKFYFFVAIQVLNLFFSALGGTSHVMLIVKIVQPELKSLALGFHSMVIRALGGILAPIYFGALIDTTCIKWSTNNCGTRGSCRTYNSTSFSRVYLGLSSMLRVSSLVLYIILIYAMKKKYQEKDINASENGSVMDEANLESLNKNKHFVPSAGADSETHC
Protocol: The human epidermoid carcinoma cell (A431) overexpressing OATP1A2, OATP1B1, OATP1B3, or OATP2B1 transporters and their mock control cells were generated previously as described. , Cell culture was maintained in DMEM supplemented with 10% fetal bovine serum, 2 mM L-glutamine, 100 units/mL penicillin, and 100 μg/mL streptomycin at 37 °C and 5% CO2.
The inhibitory effects of mycotoxins (Z14S and Z14GA) were examined using indirect fluorescence assays, where pyranine and SR101 were used as fluorescent substrates. , A431 cells overexpressing OATP1A2, OATP1B1/3, or OATP2B1 and their mock-transfected controls were seeded at a density of 8 × 10^4 cells/well onto 96-well plates and incubated for 18–22 h prior to transport measurements. The next day, plated cells were washed three times with 200 μL of PBS (phosphate-buffered saline, pH 7.4) and preincubated with 50 μL of transport buffer (pH 5.5; 125 mM NaCl, 4.8 mM KCl, 1.2 mM CaCl2, 1.2 mM KH2PO4, 12 mM MgSO4, 25 mM MES, and 5.6 mM glucose) with or without increasing concentrations of the mycotoxins tested (0.001–20 μM) for 5 min at 37 °C. The transport inhibition measurements were initiated by adding 50 μL of transport buffer containing the proper fluorescent substrate SR101 (0.5 μM, OATP1A2) or pyranine (10 μM for OATP1B1 or 20 μM for OATP1B3 and OATP2B1). After 10 min (OATP1A2), 15 min (OATP1B1 and OATP2B1), or 30 min (OATP1B3) incubation, the transport was terminated by washing the cells three times with ice-cold PBS. Regarding the individual OATP assays, we applied different incubation times to keep the substrate uptake in the linear range, , avoiding substrate depletion or saturation effects, as it is indispensable for the accurate assessment. Using an Enspire plate reader (PerkinElmer, Waltham, MA), the fluorescence was measured at excitation/emission wavelengths of 460/510 nm (pyranine) or 586/605 nm (SR101).
OATP-mediated transport was obtained by subtracting the activity of the mock control cells from the activity of the OATP-expressing cells. The transport activity (%) of the OATPs was calculated by comparing the fluorescence signal obtained in the absence of the compounds tested (set to 100%).

T1 sequence (P11712 whole entry): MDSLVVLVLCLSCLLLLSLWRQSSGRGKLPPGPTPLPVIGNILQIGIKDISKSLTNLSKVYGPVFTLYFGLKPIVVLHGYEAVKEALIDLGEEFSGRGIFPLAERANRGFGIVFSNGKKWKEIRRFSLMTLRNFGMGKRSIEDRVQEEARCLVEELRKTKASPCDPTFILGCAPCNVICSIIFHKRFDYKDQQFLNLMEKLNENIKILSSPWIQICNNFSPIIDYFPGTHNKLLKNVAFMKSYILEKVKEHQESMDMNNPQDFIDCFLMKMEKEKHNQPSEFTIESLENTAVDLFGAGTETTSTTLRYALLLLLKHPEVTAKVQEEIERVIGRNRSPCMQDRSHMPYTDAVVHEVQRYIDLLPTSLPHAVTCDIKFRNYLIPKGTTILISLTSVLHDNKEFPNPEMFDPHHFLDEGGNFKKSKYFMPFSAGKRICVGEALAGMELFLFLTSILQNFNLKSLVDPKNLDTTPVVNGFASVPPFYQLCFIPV

Compound | inhibition of CYP2C9 (decrease in metabolite formation) (CYP2C9; each 20 μM) | pIC50 (OATP1B1; pyranine 10 μM, 15 min, A431 cells, read-out: IC50 for OATP1B1) | inhibition at 120 min, 20 μM (CYP2C9; human, pH 7.5, each 20 μM, read-out: inhibition of CYP2C9 (decrease in metabolite formation)) | pIC50 (OATP1B1) | decrease in OATP1B1 transport activity (OATP1B1; 20 μM, pyranine substrate, A431 cells) | stronger inhibition on OATP1B1 compared to ZEN (OATP1B1; ratio of IC50 values vs ZEN)
C[C@H]1CCCC(=O)CCC/C=C/c2cc(O[C@@H]3O[C@H](C(=O)O)[C@@H](O)[C@H](O)[C@H]3O)cc(O)c2C(=O)O1 [Z14GA, Zearalenone-14-glucuronide] | no effects | < 4.70 | – | – | – | –
C[C@H]1CCCC(=O)CCC/C=C/c2cc(OS(=O)(=O)O)cc(O)c2C(=O)O1 [Z14S, zearalenone-14-sulfate] | – | – | ~45% | 6.57 | 80–100% | more than 30 fold
